Measured values reported in patent US20210260101A1, “POTENTIATED ANTIBIOTIC COMPOSITIONS AND METHODS OF USE FOR TREATING BACTERIAL INFECTIONS AND BIOFILMS” (priority 2018, published 2021).
Values joined by “and” are separate entries in the source; they are usually repeats but may differ in a detail not shown here. Equal entries are not always repeated. “Also recorded” adds a separate entry of the source. Where two headings read alike, the source gives them in different places. Marks after values point to notes of the source that are not given here.

Tests used:
MRSA OU6 biofilms = experiment: Biofilm disrupting assay (crystal violet), MRSA OU6; format: cell-based, Staphylococcus aureus; conditions: 64 and 128 μg/mL, 20 hr
Experimental: This experiment was conducted in parallel with polymyxin B (PmB, a cationic polypeptide antibiotic) and BPEI600. In short, an overnight MRSA OU 6 culture was inoculated in a tissue-culture treated 96-well plate (100 μL of tryptic soy broth or TSB/well) with an inoculation size of 1 μL/well (˜5×10^5 CFU/mL). The plate was incubated at 35° C. for 24 hr to allow the bacteria to form biofilm. It was then washed with water to remove planktonic bacteria and stained with 100 μL of crystal violet solution (0.1%) per well for 15 min. The stained plate was washed excessively with water 5 times to remove any unbound stain and air-dried overnight. […] A negative control (water only) and positive control (30% acetic acid) were also conducted at the same time of treatment. After 20 hr, without touching the biofilm layer in the bottom of the plate, solubilized solution in each treated well was carefully transferred to a new 96-well plate for an OD550 measurement, which represents the corresponding amount of biofilm disrupted by each treatment.

[1] = tested on: P. aeruginosa BAA-47 cells; experiment: Resazurin cell viability assay; format: cell-based, Pseudomonas aeruginosa; conditions: 64 μg/mL
Experimental: All fluorescence studies used a cell density of ˜6×10^9 CFU/mL, while checkerboard assays only inoculated a cell density of 5×10^5 CFU/mL. Therefore, an amount of 128 μg/mL BPEI for fluorescence assays is considered sub-lethal, which is tested and confirmed by resazurin assays. The reduction of resazurin to resorufin occurs via cellular metabolism and thus is an excellent reporter of cell viability. […] First, the cells in the fluorescence assays are viable and thus drug influx and efflux processes control the intracellular concentration rather than widespread disruption of outer membrane that leads to cell lysis.

[2] = tested on: P. aeruginosa BAA-47 cells; experiment: NPN accumulation assay; format: cell-based, Pseudomonas aeruginosa; conditions: 64 μg/mL polymyxin-B; 64 and 128 μg/mL BPEI600; ~6×10^9 CFU/ml
Experimental: Overnight culture of P. aeruginosa BAA-47 was used to inoculate fresh CAMHB media for another 5 hr at 35° C. with shaking. Bacterial cells were collected by centrifugation at 6000 rpm for 40 min and resuspended in PBS. The OD600 of the cell suspension was adjusted to ˜1.0 and kept at room temperature during the experiment. Aliquots (180 μL/well) of the cell suspension were transferred to a 96-well flat-bottom black plate in the format of column 1, PBS blank; column 2, untreated control cells BAA-47; column 3, cells BAA-47+BPEI (sub-lethal concentration). Five technical replicates of each group were conducted. Fluorescent probes Hoechst 33342 bisbenzimide (H33342) or 1-N-phenylnaphthylamine (NPN) was added (20 μL) to each well with a final concentration of 5 μM. Fluorescence was read immediately after the addition of H33342 or NPN by a Tecan Infinite M20 plate reader with the excitation and emission filters of 355 and 460 nm for H33342 or 350 and 420 nm for NPN, respectively. Fluorescence data were normalized to the emission before cells were added in the PBS control, and they were plotted against time to show the cellular uptake of H33342 or NPN over 10 min.

MRSE 35984 biofilms = experiment: Biofilm kill curve; format: cell-based, Staphylococcus epidermidis; conditions: 64 μg/mL BPEI, 16 μg/mL oxacillin, or both
Experimental: Biofilm was grown in an MBEC inoculator plate for 24 hours with shaking to facilitate biofilm formation. At time zero, the prongs were sonicated in PBS for 30 minutes and then plated on agar for CFU counting. […] The prongs on the MBEC inoculator were washed in PBS for 10 seconds and then transferred into the new treated base plate and incubated. Agar CFU plating was performed at 2 hours, 4 hours, 8 hours, and 24 hours for each treatment group. All the agar plating was incubated at 35° C. and counted for colony forming units the next day. Each trial was done in duplicate.

MRSA MW2 = experiment: Checkerboard assay (Example 3), MRSA MW2; format: cell-based, Staphylococcus aureus; conditions: for MIC: MRSA MW2, agent alone
Experimental: (§1) Cells were grown at 37° C. The change in OD600 (optical density at 600 nm) was measured and recorded after 24 hr of treatment. Each checkerboard trial was done in triplicate using sterile Greiner CellStar™ flat bottom polystyrene plates, catalog #655180.

[3] = tested on: S. epidermidis ATCC 12228 (MSSE 12228); experiment: MIC/potentiation against MSSE 12228; format: cell-based, Staphylococcus epidermidis
MRSE 35984 = experiment: Checkerboard assay (Example 3), MRSE 35984; format: cell-based, Staphylococcus epidermidis
Experimental: as §1

MRSA USA300 (BAA-1717) = experiment: Checkerboard assay (Example 3), MRSA USA300; format: cell-based, Staphylococcus aureus; conditions: for MIC: MRSA USA300, agent alone
Experimental: as §1

MRSE 35984 biofilm = experiment: MBEC assay (challenge plate MIC, recovery plate MBEC), MRSE 35984; format: cell-based, Staphylococcus epidermidis
Experimental: A sub-culture of MRSE was grown from the cryogenic stock on an agar plate overnight at 35° C. The MBEC plate was inoculated with 150 μL of TSB/well plus 1 μL of a stock culture made from 1 colony/mL of MRSE in TSB. The MBEC inoculator plate was sealed with Parafilm and incubated for 24 hours at 35° C. with 100 rpm shaking to facilitate biofilm formation on the prongs. Following biofilm formation, the lid of the MBEC inoculator was removed and placed in a rinse plate containing 200 μL of sterile PBS for 10 sec. Biofilm growth check (BGC) was performed by breaking a few prongs off using sterile pliers, submerging them in 1 mL PBS, and sonicating them on high for 30 minutes to dislodge the biofilm. After sonication, the biofilm solution was serial-diluted and spot-plated on agar plates for CFU counting to determine the biofilm density on the prongs.
A challenge plate was made in a new pre-sterilized 96-well plate in a checkerboard-assay pattern to test the synergistic activity of BPEI+antibiotic combinations. Antimicrobial solutions were serial-diluted and added to the 96-well plate, which contained 200 μL of cation-adjusted Mueller-Hinton broth (MHB) per well. Following the rinsing step and biofilm growth check, the MBEC inoculator lid was immediately transferred into the prepared antimicrobial challenge plate and incubated at 35° C. for 20-24 hours. After the challenge period, the MBEC inoculator lid was transferred into a recovery plate containing 200 μL of MHB per well, sonicated on high for 30 minutes to dislodge the biofilm and then incubated at 35° C. for 20-24 hour to allow the surviving bacterial cells to grow. After incubation, the OD600 (optical density at 600 nm) of the recovery plate was measured using a Tecan Infinite M20 plate reader to determine the MBEC of the antimicrobial compounds tested. A change in OD600 greater than 0.05 indicated positive growth. Likewise, the OD600 for the base of the challenge plate was measured […] to determine the MICs of the antimicrobial compounds.

[4] = tested on: S. epidermidis ATCC 35984 (MRSE 35984); experiment: MIC/potentiation against MRSE 35984 (Example 1); format: cell-based, Staphylococcus epidermidis
MRSA USA 300 ATCC 1717 = experiment: Checkerboard MIC assay against MRSA USA300 (Example 1); format: cell-based, Staphylococcus aureus; conditions: for MIC: Staphylococcus aureus
[5] = tested on: MRSA clinical isolate OU6; experiment: Clinical laboratory susceptibility (MicroScan), MRSA isolate 6; format: cell-based, S. aureus; conditions: MicroScan PC33 gram positive panel
[6] = tested on: MRSA clinical isolate OU11; experiment: Clinical laboratory susceptibility (MicroScan), MRSA isolate 11; format: cell-based, S. aureus; conditions: MicroScan PC33 gram positive panel

Compound: polymyxin B
- biofilm dispersal (crystal violet) (MRSA OU6 biofilms): slight dissolution in biomass
- cell viability (resazurin) [1]: near background levels; also recorded: lethal
- fold increase in NPN fluorescence intensity [2]: 2.7 fold

Compound: Cc1onc(-c2ccccc2)c1C(=O)N[C@@H]1C(=O)N2[C@@H]1SC(C)(C)[C@@H]2C(=O)O [oxacillin]
- biofilm cell density at 24 hours (MRSE 35984 biofilms): ~10^3 CFU/mL
- OXA MIC in combination with 600 Da BPEI (MRSA MW2; BPEI amount in same cell): 2 µg/mL
- MIC (MRSA MW2; listed as OXA): 32 µg/mL and 16 µg/mL
- OXA MIC in combination with PEG-BPEI (MRSA MW2; PEG-BPEI amount in same cell): 4 µg/mL
- MIC (MRSA MW2; Staphylococcus aureus, MRSA, read-out: MIC): 32 µg/mL
- MIC, antibiotic + 2 μg/ml (3.375 μM) 600-Da BPEI [3]: 0.1 µg/mL
- MIC, antibiotic + 4 μg/ml (6.75 μM) 600-Da BPEI [3]: 0.1 µg/mL
- MIC of antibiotic only ([3]; agent alone): 0.1 µg/mL
- OXA MIC in combination with 600 Da BPEI (MRSE 35984; BPEI amount in same cell): 8 µg/mL
- MIC (MRSE 35984; MRSE 35984, agent alone): 32 µg/mL
- MIC (MRSE 35984; MRSE 35984, agent alone, listed as OXA): 32 µg/mL and 64 µg/mL
- OXA MIC in combination with PEG-BPEI (MRSE 35984; PEG-BPEI amount in same cell): 8 µg/mL
- MIC (MRSE 35984; Staphylococcus epidermidis, MRSE, MRSE 35984, agent alone, read-out: MIC): 64 µg/mL
- MIC (MRSE 35984; Staphylococcus epidermidis, MRSE, read-out: oxacillin MIC with 6.67 μM BPEI600, MRSE planktonic cells): 4 µg/mL
- MIC (MRSE 35984; Staphylococcus epidermidis, MRSE, read-out: oxacillin MIC with 33.37 μM of PEG350-BPEI600, MRSE planktonic cells): 4 µg/mL
- OXA MIC in combination with 600 Da BPEI (MRSA USA300 (BAA-1717); BPEI amount in same cell): 4 µg/mL
- MIC (MRSA USA300 (BAA-1717); listed as OXA): 32 µg/mL and 16 µg/mL
- OXA MIC in combination with PEG-BPEI (MRSA USA300 (BAA-1717); PEG-BPEI amount in same cell): 2 µg/mL
- MIC (MRSA USA300 (BAA-1717); Staphylococcus aureus, read-out: MIC): 32 µg/mL
- MBEC, antibiotic + 4 μg/ml (6.75 μM) 600-Da BPEI (MRSE 35984 biofilm; MRSE 35984 biofilm): 8* μg/ml
- oxacillin MBEC with 8 μg/mL of BPEI (MRSE 35984 biofilm; MRSE 35984 biofilm): 32 µg/mL
- oxacillin MBEC with 64 μg/mL of BPEI (MRSE 35984 biofilm; MRSE 35984 biofilm): 8 µg/mL
- oxacillin MBEC in the presence of 13 μM of BPEI600 (MRSE 35984 biofilm; MRSE biofilm): 16 µg/mL
- MIC (MRSE 35984 biofilm; Staphylococcus epidermidis, MRSE 35984 planktonic, agent alone): 16 µg/mL
- MIC, antibiotic + 2 μg/ml (3.375 μM) 600-Da BPEI [4]: 2 µg/mL
- MIC, antibiotic + 4 μg/ml (6.75 μM) 600-Da BPEI [4]: 0.25 µg/mL
- fold reduction of oxacillin MIC ([4]; adding 6.75 μM of BPEI600): 256 fold
- MIC of antibiotic only ([4]; agent alone): 64 µg/mL
- MIC with 4 μg/ml (6.75 μM) 600-Da BPEI (MRSA USA 300 ATCC 1717; MRSA USA300): 1 µg/mL
- MIC, antibiotic + 16 μg/ml (17 μM) PEG350BPEI600 (MRSA USA 300 ATCC 1717; MRSA USA300): 0.5 µg/mL
- MIC, antibiotic + 64 μg/ml (40 μM) PEG1000BPEI600 (MRSA USA 300 ATCC 1717; MRSA USA300): 0.5 µg/mL
- MIC (MRSA USA 300 ATCC 1717; MRSA USA300, agent alone, read-out: MIC of antibiotic only): 16 µg/mL
- MIC (MRSA USA 300 ATCC 1717; MRSA USA300, read-out: oxacillin MIC with 16 μg/mL of PEG350BPEI600 (17 μM)): 0.5 µg/mL
- effect of 50% FBS on oxacillin MIC (MRSA USA 300 ATCC 1717; potentiation in fetal bovine serum vs CAMHB without FBS): does not change
- fold reduction of oxacillin MIC (MRSA USA 300 ATCC 1717; with BPEI600, MRSA USA300): 2 fold
- MIC [5]: > 2 µg/mL
- MIC [6]: > 2 µg/mL
